Molecular target: human mGluR4 (Homo sapiens (Human), UniProt Q14833)
Assay: mGluR4 potentiation assay, CHO cells transfected with human mGluR4, Ca2+-sensitive dye, EC20 agonist
Type: cell-based
Details: potentiation of mGluR4
Experimental: The disclosed compounds and compositions can be evaluated for their ability to act as a potentiator of metabotropic glutamate receptor activity, in particular mGluR4 activity, by any suitable known methodology known in the art. For example, Chinese Hamster Ovary (CHO) cells transfected with human mGluR4 or HEK cells co-transfected with rat mGluR4 and the G-protein regulated Inwardly Rectifying Potassium channel (GIRK) were plated in clear bottom assay plates for assay in a Hamamatsu FDSS Fluorometric Plate Reader. The cells were loaded with either a Ca2+-sensitive fluorescent dye or the thallium responsive dye and the plates were washed and placed into a suitable kinetic plate reader. For human mGluR4 assays, a fluorescence baseline was established for 3-5 seconds, the disclosed compounds were then added to the cells, and the response in cells was measured. Approximately two and a half minutes later, a concentration of mGluR4 orthosteric agonist (e.g. glutamate or L-AP4) eliciting approximately 20% (EC20) of the maximal agonist response was added to the cells, and the response was measured. Two minutes later, a concentration of mGluR4 agonist (e.g. glutamate or L-AP4) eliciting 80% (EC80) of the maximal agonist response was added to the cells, and the response was measured. For rat mGluR4/GIRK experiments, a baseline was established for approximately five seconds, disclosed compounds were added, and either an EC20 or EC80 concentration of agonist was added approximately two and one half minutes later. Potentiation of the agonist response of mGluR4 by the disclosed compounds was observed as an increase in response to the EC20 concentration of agonist in the presence of compound compared to the response to agonist in the absence of compound. Similarly, antagonism of the agonist response of mGluR4 by the disclosed compounds was observed as a decrease in response to the EC80 concentration of agonist in the presence of compound compared to the response to agonist in the absence of compound.
The above described assay operated in two modes. In the first mode, a range of concentrations of the disclosed compounds are added to cells, followed by a single fixed concentration of agonist. If the compound acts as a potentiatior, an EC50 value for potentiation and a maximum extent of potentiation by the compound at this concentration of agonist is determined by non-linear curve fitting. If the compound acts as a noncompetitive antagonist, an IC50 value is determined by non-linear curve fitting. In the second mode, several fixed concentrations of the disclosed compounds are added to various wells on a plate, followed by a range in concentrations of agonist for each concentration of disclosed compound. The EC50 values for the agonist at each concentration of compound are determined by non-linear curve fitting. A decrease in the EC50 value of the agonist with increasing concentrations of the sample compound (a leftward shift of the agonist concentration-response curve) is an indication of the degree of mGluR4 potentiation at a given concentration of the sample compound. A decrease in the maximal response of the agonist with increasing concentrations of the sample compounds, with or without a rightward shift in agonist potency, is an indication of the degree of noncompetitive antagonism at mGluR4. The second mode also indicates whether the sample compounds also affect the maximum response to mGluR4 to agonists.

[1] = main compound table, species not given
[2] = summary list repeated at the end of the table, species not stated

Chain of human mGluR4 (Q14833 33-912): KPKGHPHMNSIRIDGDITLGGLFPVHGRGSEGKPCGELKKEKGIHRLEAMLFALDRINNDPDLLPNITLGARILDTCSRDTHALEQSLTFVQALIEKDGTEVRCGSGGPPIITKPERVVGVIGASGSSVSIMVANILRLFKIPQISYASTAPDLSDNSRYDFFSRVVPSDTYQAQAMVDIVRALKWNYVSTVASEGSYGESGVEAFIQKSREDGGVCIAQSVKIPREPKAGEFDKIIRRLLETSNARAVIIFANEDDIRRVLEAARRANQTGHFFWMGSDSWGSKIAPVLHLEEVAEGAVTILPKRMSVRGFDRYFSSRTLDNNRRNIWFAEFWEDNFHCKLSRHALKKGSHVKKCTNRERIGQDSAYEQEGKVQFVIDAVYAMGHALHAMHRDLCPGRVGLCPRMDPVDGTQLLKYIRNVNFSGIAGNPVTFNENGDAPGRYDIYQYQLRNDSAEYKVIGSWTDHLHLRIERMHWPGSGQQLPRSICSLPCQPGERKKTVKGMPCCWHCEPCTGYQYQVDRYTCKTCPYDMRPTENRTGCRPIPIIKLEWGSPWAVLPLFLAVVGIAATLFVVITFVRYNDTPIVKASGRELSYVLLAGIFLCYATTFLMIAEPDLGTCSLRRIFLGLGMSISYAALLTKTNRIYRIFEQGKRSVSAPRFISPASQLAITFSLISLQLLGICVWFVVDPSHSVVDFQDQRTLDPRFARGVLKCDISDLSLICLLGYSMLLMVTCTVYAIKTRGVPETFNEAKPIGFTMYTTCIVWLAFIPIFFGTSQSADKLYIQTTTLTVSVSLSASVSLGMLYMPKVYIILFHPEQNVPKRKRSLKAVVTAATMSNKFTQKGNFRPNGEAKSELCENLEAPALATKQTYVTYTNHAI

With `O=C(NC1CC(F)(F)C1)c1nsc2cc(Nc3n[nH]c4nccnc34)ccc12` [Example 30, 6-((1H-pyrazolo[3,4-b]pyrazin-3-yl)amino)-N-(3,3-difluorocyclobutyl) benzo[d] isothiazole-3-carboxamide] as the compound, how does the EC50 [1] read?
Its EC50 is 42.6 nM.

And the EC50 [2]?
Its EC50 is 42.6 nM.

Which results are given for `O=C(c1nsc2cc(Nc3n[nH]c4cccnc34)ccc12)N1CCCC1c1ccccn1` (stereo not drawn) [Example 11, (6-((1H-pyrazolo [4,3-b]pyridin-3-yl)amino)benzo[d]isothiazol-3-yl)(2-(pyridin-2-yl)pyrrolidin-1-yl) methanone]?
EC50 [1]: > 10000 nM; EC50 [2]: > 10000 nM

Which EC50 [1] does the source give for `c1cnc2c(Nc3cnc4c(CN5CCCC5)nsc4c3)n[nH]c2c1` [Example 58, N-(1H-pyrazolo[4,3-b]pyridin-3-yl)-3-(pyrrolidin-1-ylmethyl) isothiazolo [4,5-b]pyridin-6-amine] here?
The EC50 was 3740 nM.

What about the EC50 [2] of the same compound?
The EC50 was 3740 nM.

`O=C(C1CC1)N1CCC(c2nsc3cc(Nc4n[nH]c5cccnc45)ccc23)CC1` [Example 71, (4-(6-((1H-pyrazolo [4,3-b]pyridin-3-yl)amino)benzo[d]isothiazol-3-yl)piperidin-1-yl) (cyclopropyl) methanone] was tested. Which EC50 [1] did it give?
The EC50 was 388 nM.

And the EC50 [2]?
The EC50 was 388 nM.

`O=C(c1nsc2cc(Nc3n[nH]c4cccnc34)ccc12)N1CCN2CCCC2C1` (stereo not drawn) [Example 13, (6-((1H-pyrazolo [4,3-b]pyridin-3-yl)amino)benzo[d]isothiazol-3-yl)(hexahydropyrrolo [1,2-a]pyrazin-2(1H)-yl)methanone] was tested. Which EC50 [1] did it give?
The EC50 was 1610 nM.

And the EC50 [2]?
Its EC50 is 1610 nM.

For `c1cnc2[nH]nc(Nc3cnc4c(CN5CCOCC5)nsc4c3)c2c1` [Example 55, 3-(morpholinomethyl)-N-(1H-pyrazolo[3,4-b]pyridin-3-yl)isothiazolo[4,5-b] pyridin-6-amine], which EC50 [1] is on record?
The EC50 was 1030 nM.

And the EC50 [2]?
Its EC50 is 1030 nM.

What does the source list for `FC1(F)CCN(Cc2nsc3cc(Nc4n[nH]c5cccnc45)cnc23)CC1` [Example 50, 3-((4,4-difluoropiperidin-1-yl)methyl)-N-(1H-pyrazolo[4,3-b]pyridin-3-yl) isothiazolo[4,5-b]pyridin-6-amine]?
EC50 [1]: 81.1 nM; EC50 [2]: 81.1 nM

For `O=C(c1nsc2cc(Nc3n[nH]c4cccnc34)ccc12)N1CCOCC1` [Example 6, (6-((1H-pyrazolo [4,3-b]pyridin-3-yl)amino)benzo[d]isothiazol-3-yl)(morpholino) methanone], which EC50 [1] is on record?
Its EC50 is 303 nM.

What about the EC50 [2] of the same compound?
The EC50 was 303 nM.

Which results are given for `CC(C)(C)Cc1nsc2cc(Nc3n[nH]c4ncccc34)cnc12` [Example 28, 3-neopentyl-N-(1H-pyrazolo[3,4-b]pyridin-3-yl) isothiazolo[4,5-b] pyridin-6-amine]?
EC50 [1]: 119 nM; EC50 [2]: 119 nM

What does the source list for `O=C(NC1CC(F)(F)C1)c1nsc2cc(Nc3n[nH]c4cccnc34)ccc12` [Example 4, 6-((1H-pyrazolo[4,3-b]pyridin-3-yl)amino)-N-(3,3-difluorocyclobutyl)benzo[d] isothiazole-3-carboxamide]?
EC50 [1]: 32 nM; EC50 [2]: 32 nM

`CC1CN(C(=O)c2nsc3cc(Nc4n[nH]c5cccnc45)ccc23)CC(C)O1` (stereo not drawn) [Example 7, (6-((1H-pyrazolo [4,3-b]pyridin-3-yl)amino)benzo[d]isothiazol-3-yl) (2,6-dimethyl-morpholino) methanone] was tested. Which EC50 [1] did it give?
Its EC50 is 306 nM.

And the EC50 [2]?
Its EC50 is 306 nM.

How did the EC50 [1] turn out when `c1cnc2c(Nc3ccc4c(C5CC5)nsc4c3)n[nH]c2n1` [Example 37, 3-cyclopropyl-N-(1H-pyrazolo [3,4-b]pyrazin-3-yl)benzo [d]isothiazol-6-amine] was run?
The EC50 was 61.1 nM.

And the EC50 [2]?
The EC50 was 61.1 nM.

For `O=C(c1nsc2cc(Nc3n[nH]c4cccnc34)ccc12)N1CCC(C(F)(F)F)CC1` [Example 21, (6-((1H-pyrazolo [4,3-b]pyridin-3-yl)amino)benzo[d]isothiazol-3-yl) (4-(trifluoromethyl)piperidin-1-yl) methanone], which EC50 [1] is on record?
The EC50 was 50 nM.

And the EC50 [2]?
Its EC50 is 50 nM.

`O=C(c1nsc2cc(Nc3n[nH]c4cccnc34)ccc12)N1CCC(F)(F)CC1` [Example 5, (6-((1H-pyrazolo[4,3-b]pyridin-3-yl)amino)benzo[d]isothiazol-3-yl) (4,4-difluoropiperidin-1-yl) methanone] was tested. Which EC50 [1] did it give?
The EC50 was 60 nM.

What about the EC50 [2] of the same compound?
The EC50 was 60 nM.

Which results are given for `CC1(C)CN(Cc2nsc3cc(Nc4n[nH]c5cccnc45)cnc23)CCO1` [Example 60]?
EC50 [1]: 147 nM; EC50 [2]: 147 nM

What does the source list for `FC(F)(F)c1nsc2cc(Nc3n[nH]c4ncccc34)ccc12` [Example 29, N-(1H-pyrazolo[3,4-b]pyridin-3-yl)-3-(trifluoromethyl)benzo[d] isothiazol-6-amine]?
EC50 [1]: 1240 nM; EC50 [2]: 1240 nM

Which results are given for `O=C(c1nsc2cc(Nc3n[nH]c4nccnc34)ccc12)N1CCC(F)(F)CC1` [Example 33, (6-((1H-pyrazolo[3,4-b]pyrazin-3-yl)amino)benzo[d]isothiazol-3-yl)(4,4-difluoropiperidin-1-yl) methanone]?
EC50 [1]: 827 nM; EC50 [2]: 827 nM

Which EC50 [1] does the source give for `CC(=O)N1CCC(c2nsc3cc(Nc4n[nH]c5cccnc45)ccc23)CC1` [Example 35, 1-(4-(6-((1H-pyrazolo[4,3-b]pyridin-3-yl)amino)benzo[d]isothiazol-3-yl)piperidin-1-yl)ethan-1-one] here?
The EC50 was 199 nM.

And the EC50 [2]?
The EC50 was 199 nM.

What does the source list for `CC(C)(C)Cc1nsc2cc(Nc3n[nH]c4nccnc34)cnc12` [Example 27, 3-neopentyl-N-(1H-pyrazolo[3,4-b]pyrazin-3-yl) isothiazole[4,5-b] pyridin-6-amine]?
EC50 [1]: 99.5 nM; EC50 [2]: 99.5 nM

`CC1CC(C)CN(C(=O)c2nsc3cc(Nc4n[nH]c5cccnc45)ccc23)C1` (stereo not drawn) [Example 18, (6-((1H-pyrazolo [4,3-b]pyridin-3-yl)amino)benzo[d]isothiazol-3-yl)(3,5-dimethylpiperidin-1-yl) methanone] was tested. Which EC50 [1] did it give?
Its EC50 is 517 nM.

What about the EC50 [2] of the same compound?
Its EC50 is 517 nM.

`CC(=O)N1CCC(c2nsc3cc(Nc4n[nH]c5ncccc45)ccc23)CC1` [Example 64, 1-(4-(6-((1H-pyrazolo[3,4-b]pyridin-3-yl)amino)benzo[d]isothiazol-3-yl)piperidin-1-yl)ethan-1-one] was tested. Which EC50 [1] did it give?
The EC50 was 409 nM.

What about the EC50 [2] of the same compound?
Its EC50 is 409 nM.

Reference: US10221172B2, “Benzothiazole and benzisothiazole-substituted compounds as mGluR4 allosteric potentiators, compositions, and methods of treating neurological dysfunction” (Vanderbilt University, priority 2015, dated 2019)
